Measurements as given in article PMC4216207 (Journal of Medicinal Chemistry, 2014).

How the values were obtained:
[1] = cellular cytotoxicity assay; format: cell-based; details: human, HOS human osteosarcoma cells
[2] = system: lentiviral vector harboring WT IN; experiment: microbe, parasite or virus in culture; format: cell-based, HIV-1; details: for antiviral potency against WT vector with increasing FBS: 5%, 10% and 15% FBS, relative to values at 5% FBS, data not shown
[3] = system: HIV-1 construct carrying IN mutation G118R; experiment: single-round HIV-1 infectivity assay, G118R IN mutant; format: cell-based; details: Human immunodeficiency virus 1, read-out: EC50 G118R IN mutant
[4] = system: HIV-1 construct carrying IN mutation R263 K; experiment: single-round HIV-1 infectivity assay, R263 K IN mutant; format: cell-based; details: Human immunodeficiency virus 1, read-out: EC50 R263 K IN mutant

| Structure (SMILES) | CC50 [1] | antiviral potency against WT vector with increasing FBS [2] | further results |
| --- | --- | --- | --- |
| COC(=O)[C@H](Nc1c(C(=O)NCc2ccc(F)cc2F)c(=O)n(O)c2ncccc12)c1ccccc1 [(R)-5s, Methyl (R)-2-((3-((2,4-Difluorobenzyl)carbamoyl)-1-hydroxy-2-oxo-1,2-dihydro-1,8-naphthyridin-4-yl)amino)-2-phenylacetate] | > 250000 nM | – | – |
| CC(=O)OCCNc1c(C(=O)NCc2ccc(F)cc2F)c(=O)n(O)c2ncccc12 [5p, 2-((3-((2,4-Difluorobenzyl)carbamoyl)-1-hydroxy-2-oxo-1,2-dihydro-1,8-naphthyridin-4-yl)amino)ethyl Acetate] | – | essentially unchanged | – |
| COC(=O)[C@H](C)Nc1c(C(=O)NCc2ccc(F)cc2F)c(=O)n(O)c2ncccc12 [(S)-5r, Methyl (S)-2-((3-((2,4-Difluorobenzyl)carbamoyl)-1-hydroxy-2-oxo-1,2-dihydro-1,8-naphthyridin-4-yl)amino)propanoate] | > 250000 nM | – | – |
| COC(=O)CNc1c(C(=O)NCc2ccc(F)cc2F)c(=O)n(O)c2ncccc12 [5q, Methyl 2-((3-((2,4-Difluorobenzyl)carbamoyl)-1-hydroxy-2-oxo-1,2-dihydro-1,8-naphthyridin-4-yl)amino)acetate] | – | essentially unchanged | – |
| COC(=O)[C@@H](CO)Nc1c(C(=O)NCc2ccc(F)cc2F)c(=O)n(O)c2ncccc12 [(R)-5t, Methyl (R)-2-((3-((2,4-Difluorobenzyl)carbamoyl)-1-hydroxy-2-oxo-1,2-dihydro-1,8-naphthyridin-4-yl)amino)-3-hydroxypropanoate] | > 250000 nM | – | – |
| Cc1nnc(C(=O)NC(C)(C)c2nc(C(=O)NCc3ccc(F)cc3)c(O)c(=O)n2C)o1 [compound 1, raltegravir] | – | – | EC50 [3]: 36 ± 5 nM; EC50 [4]: 9 ± 4 nM; EC50 ([2]; Human immunodeficiency virus 1, read-out: EC50 (WT)): 4 ± 2 nM |
| Nc1c(C(=O)NCc2ccc(F)cc2F)c(=O)n(O)c2ncccc12 [5v, 4-Amino-N-(2,4-difluorobenzyl)-1-hydroxy-2-oxo-1,2-dihydro-1,8-naphthyridine-3-carboxamide] | – | essentially unchanged | – |
